Read-outs that look alike come from different tables or passages of the source.
Test system: NHACs
Test: calcium flux assay
Assay type: cell-based, human
Settings: for Emax: read-out: (A) % Efficacy
Protocol: NHACs were plated in 1536 Greiner plate at 2000 cells/well in 4 ul volume. 24 hours later, 4 ul of Calcium 5 dye solution (Hank's Balanced Salt/HEPES buffer containing 5 mM of Probenecid) was then added and incubated for 1 hour at room temperature. Fluorescence readings at excitation wavelength of 470-495 nm and emission wavelength of 515-575 nm were done using FLIPR high-throughput screening system (Molecular Devices, Sunnyvale, CA). The test compound was then added to each well at the indicated dose. Signal was measured prior compound dispense and after using a first interval of 1 second for 60 reads and second interval of 3 second for 20 reads. Data was analyzed using Molecular Devices ScreenWorks® Software.

Compound	EC50 (Homo sapiens) [µM]	EC50 [µM]	Emax (Homo sapiens) [%]	(A) % Efficacy [%]
Cc1cc([C@H]2[C@H]3O[C@H](C[C@@H]3F)[C@H]2C(=O)Nc2ccc(Cl)c(Cl)c2)ccn1 [Example 16, (1R,2S,3S,4R,5S)-N-(3,4-dichlorophenyl)-5-fluoro-3-(2-methylpyridin-4-yl)-7-oxabicyclo[2.2.1]heptane-2-carboxamide]	21		105	
O=C(Nc1ccc(Cl)c(Cl)c1)[C@@H]1[C@@H](c2cccc(C(F)(F)F)n2)[C@H]2O[C@@H]1C[C@@H]2O [Example 140, (1R,2R,3S,4R,5S)—N-(3,4-dichlorophenyl)-5-hydroxy-3-(6-(trifluoromethyl)pyridin-2-yl)-7-oxabicyclo[2.2.1]heptane-2-carboxamide]	15		292	
Cc1cc([C@H]2[C@H]3O[C@H](C[C@@H]3O)[C@H]2C(=O)Nc2cnc(C)c(Cl)c2)ccn1 [Example 5, (1R,2S,3S,4R,5S)-N-(5-chloro-6-methylpyridin-3-yl)-5-hydroxy-3-(2-methylpyridin-4-yl)-7-oxabicyclo[2.2.1]heptane-2-carboxamide]	> 50		18	
O=C(Nc1ccc(Cl)c(Cl)c1)[C@H]1[C@@H](c2cncnc2)[C@H]2O[C@@H]1C[C@@H]2O [Example 51, (1R,2S,3S,4R,5S)—N-(3,4-dichlorophenyl)-5-hydroxy-3-(pyrimidin-5-yl)-7-oxabicyclo[2.2.1]heptane-2-carboxamide]	> 50		0	
O=C(Nc1ccc(Cl)c(Cl)c1)[C@@H]1[C@@H](c2ccnc(F)c2)[C@H]2O[C@@H]1C[C@@H]2O (racemic) [Example 142, rac-(1R,2R,3S,4R,5S)—N-(3,4-dichlorophenyl)-3-(2-fluoropyridin-4-yl)-5-hydroxy-7-oxabicyclo[2.2.1]heptane-2-carboxamide]	28		142	
Cc1cc([C@H]2[C@H]3O[C@H](C[C@H]3F)[C@@H]2C(=O)Nc2cccc(C(F)(F)F)c2)ccn1 [Example 96, (1R,2R,3S,4R,5R)-5-fluoro-3-(2-methylpyridin-4-yl)-N-(3-(trifluoromethyl)phenyl)-7-oxabicyclo[2.2.1]heptane-2-carboxamide]	14		281	
Cc1cc([C@@H]2[C@@H](C(=O)Nc3cnc(Cl)c(Cl)c3)[C@@H]3O[C@H]2C[C@H]3F)ccn1 [Example 110, (1S,2R,3S,4S,6R)—N-(5,6-dichloropyridin-3-yl)-6-fluoro-3-(2-methylpyridin-4-yl)-7-oxabicyclo[2.2.1]heptane-2-carboxamide]	28		199	
CN(C)[C@@H]1C[C@H]2O[C@@H]1[C@H](c1ccnc(F)c1)[C@H]2C(=O)Nc1ccc(Cl)c(Cl)c1 [Example 172, (1R,2R,3S,4R,5R)—N-(3,4-dichlorophenyl)-5-(dimethylamino)-3-(2-fluoropyridin-4-yl)-7-oxabicyclo[2.2.1]heptane-2-carboxamide]	16		177	
Cc1cc([C@H]2[C@H]3O[C@H](C[C@H]3F)[C@@H]2C(=O)Nc2cccc(OC(F)(F)F)c2)ccn1 [Example 99, (1R,2R,3S,4R,5R)-5-fluoro-3-(2-methylpyridin-4-yl)-N-(3-(trifluoromethoxy)phenyl)-7-oxabicyclo[2.2.1]heptane-2-carboxamide]	18		383	
Cc1cc([C@H]2[C@H]3O[C@H](C[C@@H]3O)[C@@H]2C(=O)Nc2cnc(C)c(Cl)c2)ccn1 [Example 81, (1R,2R,3S,4R,5S)—N-(5-chloro-6-methylpyridin-3-yl)-5-hydroxy-3-(2-methylpyridin-4-yl)-7-oxabicyclo[2.2.1]heptane-2-carboxamide]	2.7		34	
O=C(Nc1cccc(C(F)(F)F)c1)[C@H]1[C@@H]2O[C@@H](C[C@H]2O)[C@@H]1c1ccncc1 [Example 89, (1S,2R,3S,4S,6R)-6-hydroxy-3-(pyridin-4-yl)-N-(3-(trifluoromethyl)phenyl)-7-oxabicyclo[2.2.1]heptane-2-carboxamide]	> 50		0	
O=C(Nc1ccc(Cl)c(Cl)c1)[C@H]1[C@H]2O[C@H]([C@@H]3C[C@@H]32)[C@H]1c1ccnc(F)c1F (single isomer, unassigned) [Example 30]	10		133	

Continued, in another order:

EC50 (Homo sapiens) [µM]	EC50 [µM]	Compound	Emax (Homo sapiens) [%]	(A) % Efficacy [%]
> 50		Cc1cc([C@H]2[C@H]3O[C@H](C[C@@H]3O)[C@H]2C(=O)Nc2ccc(Cl)c(Cl)c2)ccn1 (racemic) [Example 53, rac-(1R,2S,3S,4R,5S)—N-(3,4-dichlorophenyl)-5-hydroxy-3-(2-methylpyridin-4-yl)-7-oxabicyclo[2.2.1]heptane-2-carboxamide]	43	
7.8		O=C(Nc1ccc(Cl)c(Cl)c1)[C@H]1[C@@H](c2ccncc2)[C@H]2O[C@@H]1C[C@@H]2O (racemic) [Example 47, rac-(1R,2S,3S,4R,5S)—N-(3,4-dichlorophenyl)-5-hydroxy-3-(pyridin-4-yl)-7-oxabicyclo[2.2.1]heptane-2-carboxamide]	38	
30		Nc1ncc([C@H]2[C@H]3O[C@H](C[C@@H]3F)[C@@H]2C(=O)Nc2ccc(Cl)c(Cl)c2)cn1 [Example 113, (1R,2R,3S,4R,5S)-3-(2-aminopyrimidin-5-yl)-N-(3,4-dichlorophenyl)-5-fluoro-7-oxabicyclo[2.2.1]heptane-2-carboxamide]	103	
	> 50	(1S,2S,4R,5R,6S,7S)-N-(3,4-dichlorophenyl)-7-(2-methylpyridin-4-yl)-8-oxatricyclo[3.2.1.0^2,4]octane-6-carboxamide [Example 23]		54
27		Cc1ccc([C@H]2[C@H]3O[C@H](C[C@@H]3F)[C@H]2C(=O)Nc2ccc(Cl)c(Cl)c2)cn1 [Example 21, (1R,2S,3S,4R,5S)-N-(3,4-dichlorophenyl)-5-fluoro-3-(6-methylpyridin-3-yl)-7-oxabicyclo[2.2.1]heptane-2-carboxamide]	159	
14		COc1cc([C@@H]2[C@@H](C(=O)Nc3ccc(Cl)c(Cl)c3)[C@@H]3O[C@H]2C[C@H]3F)ccn1 [Example 104, (1S,2R,3S,4S,6R)—N-(3,4-dichlorophenyl)-6-fluoro-3-(2-methoxypyridin-4-yl)-7-oxabicyclo[2.2.1]heptane-2-carboxamide]	96	
> 50		Cc1cc([C@@H]2[C@@H]3O[C@@H](C[C@H]3O)[C@@H]2C(=O)Nc2ccc(Cl)c(Cl)c2)ccn1 (single isomer, unassigned) [Example 53b]	119	
> 50		CO[C@H]1C[C@H]2O[C@@H]1[C@H](c1ccnc(C)c1)[C@@H]2C(=O)Nc1ccc(Cl)c(Cl)c1 [Example 63, (1R,2S,3S,4R,5S)—N-(3,4-dichlorophenyl)-5-methoxy-3-(2-methylpyridin-4-yl)-7-oxabicyclo[2.2.1]heptane-2-carboxamide]	9	
17		O=C(Nc1ccc(Cl)c(Cl)c1)[C@@H]1[C@@H]2O[C@@H]([C@H]3C[C@H]32)[C@@H]1c1ccnc(F)c1 [Example 25, (1S,2S,4R,5R,6S,7S)-N-(3,4-dichlorophenyl)-7-(2-fluoropyridin-4-yl)-8-oxatricyclo[3.2.1.0^2,4]octane-6-carboxamide]	52	

Reference: US12209096B2, “Compounds and compositions for inducing chondrogenesis” (NOVARTIS AG, priority 2017, dated 2025)
